One data set relates to P. falciparum strains. More on the design: method as in PMID 24900261, PMID 26317851, PMID 28513586. The conditions noted are these: multiple stages of the malaria parasite; cited from earlier work.
For data set [1], the system named is P. falciparum 3D7. Briefly: Antimalarial assay against P. falciparum 3D7 (48 h growth, DNA fluorescent dye). Type of data set: cell-based, Plasmodium falciparum. The conditions noted are these: for IC50: Plasmodium falciparum. On the procedure: Plasmodium falciparum strain 3D7 was cultured in complete medium (RPMI-1640 supplemented with 10% Albumax II) using O Rh^+ red blood cells in a microaerobic environment (5% CO2, 5% O2, 90% N2). IC50 assay plates were prepared using fourfold serially diluted test compounds in complete medium to a final volume of 50 μL. Then, 50 μL of parasite inoculum at 2% parasitemia ring stage and 1% hematocrit was added to each well and incubated for 48 h in a microaerobic environment. The assay was terminated by freezing at -20 °C before growth measurement. Parasite growth was measured adding 100 μL of lysis buffer supplemented with 1× DNA fluorescent dye (UltraPower, […], Tokyo, Japan), and the fluorescent signal was measured at 495/530 nm. The IC50 value was calculated by GraphPad Prism 9.0 software (La Jolla, California, USA) using the dose-response (four-parameter) function. Artemisinin at 1 μM and complete medium were used as positive and negative controls, respectively.

Another data set deals with MCF-7 cells. Briefly: Antiproliferative assay against MCF-7 (MTT, 72 h). It is filed as cell-based, Human. The conditions noted are these: for IC50: Homo sapiens, MCF7, MCF-7 cells, 72 h, MTT; for cytotoxicity against MCF-7 cells, in words: compared with the parent compound. On the procedure: Human breast cancer cells (MCF-7) purchased from ATCC were seeded at 2 × 10^3 cells/well on a 96-well black flat-bottom plate and were cultured in high-glucose DMEM (Dulbecco’s modified Eagle medium) supplemented with 10% fetal bovine serum and 1% penicillin/streptomycin. The culture was incubated at 37 °C, 5% CO2 for 24 h. After the incubation period, the test compounds were added into the cell plate at serially diluted concentrations (20, 2, 0.2, 0.02, 0.002, and 0.0002 μM), and the culture was incubated for 72 h at 37 °C, 5% CO2. After the 72 h incubation, the cultured media containing compounds were removed, and the serum-free media containing MTT were added to the same well with additional incubation for 3 h at 37 °C, 5% CO2. After 3 h incubation, the serum-free media containing MTT were removed, and DMSO was added into the same well; the resulting solution was measured for its absorbance at 570 nm using a Multimode Microplate Reader (ENVISION) (PerkinElmer, USA). The IC50 value was calculated using GraphPad. Doxorubicin at 10 µM was used as a positive control in this assay.

Data set [2] has as its system human ovarian cancer (SKOV3). More on the design: method as in earlier work. As to conditions: patent; cited from earlier work.
In data set [3] the test system is P. falciparum 3D7. More on the design: method as in doi:10.3390/M1358. The conditions noted are these: earlier report of the group; read-out: IC50 against P. falciparum 3D7; cited from earlier work.
[4] abbreviates: Table 2, blood-stage P. falciparum 3D7, various amino-acid linkers, read-out: IC50 (µM) 3D7 ± SD.
Setting [5] is: Table 3, blood-stage P. falciparum 3D7, various amine side chains, read-out: IC50 (µM) 3D7 ± SD.
[6] abbreviates: P. falciparum 3D7, read-out: antimalarial activity against 3D7.

Each structure is given as a SMILES string. Like-named read-outs stand apart in the source and are kept apart here. A value given as a limit tells only on which side of the number the result lay.

`COc1ccccc1CNC(=O)CCn1c(=O)[nH]c2ccsc2c1=O` [MMV019066]: in the data set with P. falciparum strains, the “parasite growth inhibitory activity” value is under 1 µM.
Turning to `COc1cccc(NC(=O)Cn2c(=O)[nH]c3ccccc3c2=O)c1` [Compound 5], in the data set with P. falciparum 3D7 [1] (setting [4]), the IC50 was over 10 µM.
`CC(C)[C@@H](C(=O)Nc1ccc(Cl)cc1)n1c(=O)[nH]c2ccccc2c1=O` [Compound 25]: the “antimalarial activity against 3D7, in words” value (“antimalarial activity” for short) in the data set with P. falciparum 3D7 [1] (P. falciparum 3D7) is “good antimalarial activity”. The IC50 was 0.711 ± 0.038 µM in the data set with P. falciparum 3D7 [1] (setting [5]) and 10.5 µM with MCF-7 cells.
For `CC(C)[C@@H](C(=O)Nc1ccncc1)n1c(=O)[nH]c2ccccc2c1=O` [Compound 20] the same measures were “decrease in antimalarial activity”, 1.41 ± 0.115 µM and over 20 µM.
`COc1cccc(NCCn2c(=O)[nH]c3ccccc3c2=O)c1` [Compound 4]: in the data set on P. falciparum 3D7 [1] (setting [4]), the IC50 was over 10 µM.
As to `CC(C)[C@@H](C(=O)Nc1ccc(Cl)c(Cl)c1)n1c(=O)[nH]c2ccccc2c1=O` [Compound 26], in the data set with P. falciparum 3D7 [1] (P. falciparum 3D7), the “antimalarial activity” value is “less potent antimalarial”. In addition, the IC50 was 0.406 ± 0.034 µM with P. falciparum 3D7 [1] (setting [5]) and over 20 µM in the data set on MCF-7 cells. For the same molecule, the “cytotoxicity against MCF-7 cells, in words” value with MCF-7 cells is listed as “slightly higher cytotoxicity”.
Regarding `CC(C)[C@@H](C(=O)Nc1cccnc1)n1c(=O)[nH]c2ccccc2c1=O` [Compound 19], the “antimalarial activity” value in the data set with P. falciparum 3D7 [1] (P. falciparum 3D7) is listed as “decrease in antimalarial activity”. Further, the IC50 is 2.89 ± 0.401 µM in the data set on P. falciparum 3D7 [1] (setting [5]) and over 20 µM in the data set on MCF-7 cells.
Take `CCC[C@@H](C(=O)Nc1cccc(OC)c1)n1c(=O)[nH]c2ccccc2c1=O` [Compound 9]: the IC50 was 1 to 3 µM in the data set on P. falciparum 3D7 [1] (setting [6]) and 1.11 ± 0.1 µM in the data set with P. falciparum 3D7 [1] (setting [4]).
For `CCOC(=O)c1sc(NC(=O)[C@H](C(C)C)n2c(=O)[nH]c3ccccc3c2=O)nc1OC` [Compound 3], the “cytotoxicity against SKOV3, in words” value in data set [2] is given as “highly potent cytotoxicity”.
In the case of `CC(C)[C@@H](C(=O)Nc1cccc(F)c1)n1c(=O)[nH]c2ccccc2c1=O` [Compound 21], the “antimalarial activity” value in the data set with P. falciparum 3D7 [1] (P. falciparum 3D7) is on record as “excellent activity”. In addition, the IC50 in the data set on P. falciparum 3D7 [1] (setting [5]) is 0.036 ± 0.005 µM; with MCF-7 cells it was over 20 µM.
Take `COc1ccccc1CNC(=O)CCn1c(=O)[nH]c2ccccc2c1=O` [MMV665916]: the “parasite growth inhibitory activity” value in the data set on P. falciparum strains is given as under 1 µM.
With `CC(C)[C@@H](C(=O)Nc1ccccc1)n1c(=O)[nH]c2ccccc2c1=O` [Compound 18], the “antimalarial activity” value with P. falciparum 3D7 [1] (P. falciparum 3D7) is reported as “dramatic loss in the antimalarial activity”. The IC50 was 0.607 ± 0.03 µM in the data set with P. falciparum 3D7 [1] (setting [5]) and over 20 µM in the data set with MCF-7 cells.
On to `COc1cccc(NC(=O)[C@H](CC(C)C)n2c(=O)[nH]c3ccccc3c2=O)c1` [Compound 7], for which the results for the IC50 with P. falciparum 3D7 [1] (setting [6]) and in the data set on P. falciparum 3D7 [1] (setting [4]) were 1 to 3 µM and 3.25 ± 0.21 µM, respectively.
As for `CC(C)[C@@H](C(=O)Nc1ccc(F)c(Cl)c1)n1c(=O)[nH]c2ccccc2c1=O` [Compound 27], the IC50 with P. falciparum 3D7 [1] (setting [5]) was 0.059 ± 0.012 µM; with MCF-7 cells it was over 20 µM.
As for `COc1cccc(NC(=O)[C@H](C(C)C)n2c(=O)[nH]c3ccccc3c2=O)c1` [Compound 2], the figures for the IC50 with P. falciparum 3D7 [1] (setting [4]), with P. falciparum 3D7 [3] and with MCF-7 cells were 0.219 ± 0.024 µM, about 200 nM and 17.5 µM, respectively.
In the case of `CC(C)[C@@H](C(=O)Nc1ccc(F)c(F)c1)n1c(=O)[nH]c2ccccc2c1=O` [Compound 23], the IC50 in the data set on P. falciparum 3D7 [1] (setting [5]) came out at 0.038 ± 0.009 µM; with MCF-7 cells, 9.74 µM. Moreover, the “cytotoxicity against MCF-7 cells, in words” value in the data set with MCF-7 cells is “slightly higher cytotoxicity”.
Regarding `CC(C)[C@@H](C(=O)NCc1ccccc1)n1c(=O)[nH]c2ccccc2c1=O` [Compound 28], the “antimalarial activity” value with P. falciparum 3D7 [1] (P. falciparum 3D7) was “dramatic loss in the antimalarial activity”. The figures for the IC50 in the data set on P. falciparum 3D7 [1] (setting [5]) and with MCF-7 cells were over 10 µM and over 20 µM, respectively.
The like results for `CC(C)[C@@H](C(=O)Nc1cccc(Cl)c1)n1c(=O)[nH]c2ccccc2c1=O` [Compound 24] were, in that order, “excellent activity”, 0.022 ± 0.005 µM and over 20 µM.
Consider `COc1cccc(NC(=O)[C@H](C)n2c(=O)[nH]c3ccccc3c2=O)c1` [Compound 6], for which the IC50 with P. falciparum 3D7 [1] (setting [4]) was over 10 µM.
As to `CC(C)[C@@H](C(=O)Nc1ccc(F)cc1)n1c(=O)[nH]c2ccccc2c1=O` [Compound 22], the “antimalarial activity” value in the data set on P. falciparum 3D7 [1] (P. falciparum 3D7) is reported as “good antimalarial activity”. In addition, the IC50 is 0.36 ± 0.034 µM in the data set on P. falciparum 3D7 [1] (setting [5]) and over 20 µM in the data set with MCF-7 cells.
With `CCC(C(=O)Nc1cccc(OC)c1)n1c(=O)[nH]c2ccccc2c1=O` (stereo not drawn) [Compound 8], the “antimalarial activity” value in the data set with P. falciparum 3D7 [1] (P. falciparum 3D7) is “potent sub-micromolar activity”. The IC50 with P. falciparum 3D7 [1] (setting [4]) was 0.586 ± 0.032 µM.
Regarding `COc1ccc(NC(=O)[C@H](C(C)C)n2c(=O)[nH]c3ccccc3c2=O)cc1` [Compound 29], in the data set on P. falciparum 3D7 [1] (P. falciparum 3D7), the “antimalarial activity” value is on record as “dramatic loss in the antimalarial activity”. The IC50 is over 10 µM in the data set with P. falciparum 3D7 [1] (setting [5]) and over 20 µM with MCF-7 cells.

The values are drawn from publication PMC10096129, “Rational Design and Lead Optimisation of Potent Antimalarial Quinazolinediones and Their Cytotoxicity against MCF-7” (Molecules, 2023).
